Data published in patent US20240025922A1, “TETRAHYDROPYRIDO[3,4-d]PYRIMIDINES AS HPK1 INHIBITORS” (Merck Patent GmbH, priority 2022, published 2024).

Columns and labels:
[1] = molecular target: HPK1 (SLP76 phosphorylation at Ser376 in Jurkat and EL-4 cells) (Homo sapiens, UniProt Q92918); assay type: cell-based; details: αCD3/αCD28 Dynabeads stimulated cells, pSLP76 (Ser376) detection; read-out: HPK1 pSLP76 IC50
Method in brief: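 Phospho-SLP76 (Ser376) in lysates measured by AlphaLISA for human Jurkat and by 19 h HTRF for mouse EL-4, giving % inhibition and IC50. Compounds applied 60 min before αCD3/αCD28 bead stimulation at 37 °C, lasting 15 min (Jurkat) or 30 min (EL-4).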

[2] = molecular target: full-length human HPK1 (MAP4K1) (Homo sapiens (Human), UniProt Q92918); assay: HPK1 Kinase Assay (Biochemical Assay), ADP-Glo; details: GST-HPK1 3.2 nM, 10 μM ATP, MBP substrate, read-out: HPK1 enzymatic IC50
Method in brief: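 ADP-Glo luminescence after a 120-min kinase reaction gave percent inhibition and IC50. The enzyme was Sf21-expressed N-terminal GST full-length human HPK1 at 3.2 nM in HEPES pH 7.5 buffer with MgCl2, DTT, Brij-35 and BSA.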

Chain of HPK1 (SLP76 phosphorylation at Ser376 in Jurkat and EL-4 cells) (Q92918 whole entry, looked up): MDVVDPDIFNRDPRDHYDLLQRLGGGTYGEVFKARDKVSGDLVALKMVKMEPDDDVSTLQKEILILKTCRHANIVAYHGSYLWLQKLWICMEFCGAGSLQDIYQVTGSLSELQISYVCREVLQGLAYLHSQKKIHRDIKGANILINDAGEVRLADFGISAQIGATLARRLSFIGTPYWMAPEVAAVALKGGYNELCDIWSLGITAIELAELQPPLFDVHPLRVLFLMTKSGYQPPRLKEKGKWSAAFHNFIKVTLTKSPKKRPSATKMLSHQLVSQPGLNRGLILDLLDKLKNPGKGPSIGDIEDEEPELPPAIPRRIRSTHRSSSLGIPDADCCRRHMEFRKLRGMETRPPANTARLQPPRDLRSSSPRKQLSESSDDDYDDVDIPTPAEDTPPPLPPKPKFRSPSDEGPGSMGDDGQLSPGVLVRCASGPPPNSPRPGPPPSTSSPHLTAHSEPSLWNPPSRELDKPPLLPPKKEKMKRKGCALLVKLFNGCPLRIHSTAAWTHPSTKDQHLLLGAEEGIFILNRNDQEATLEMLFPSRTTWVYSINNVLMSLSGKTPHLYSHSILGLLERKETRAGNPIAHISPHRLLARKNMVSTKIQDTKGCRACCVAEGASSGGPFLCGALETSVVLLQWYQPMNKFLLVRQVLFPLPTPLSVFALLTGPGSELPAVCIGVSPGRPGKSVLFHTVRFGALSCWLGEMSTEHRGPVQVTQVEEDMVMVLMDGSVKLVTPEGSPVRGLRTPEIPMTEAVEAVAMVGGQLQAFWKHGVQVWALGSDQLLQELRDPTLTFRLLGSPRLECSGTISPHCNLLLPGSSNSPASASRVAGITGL
Chain of full-length human HPK1 (MAP4K1) (Q92918 whole entry): as the sequence (Q92918 whole entry, looked up) above

| SMILES | IC50 [1] [µM] | IC50 [2] [µM] |
| --- | --- | --- |
| CNC(=O)c1ccc(Nc2ncc3c(n2)CN(c2cnc4c(c2Cl)NCCO4)CC3)cc1C [Example 130, 4-[(7-{8-chloro-1H,2H,3H-pyrido[2,3-b][1,4]oxazin-7-yl}-5H,6H,7H,8H-pyrido[3,4-d]pyrimidin-2-yl)amino]-N,2-dimethylbenzamide] | 0.5 to 1 | < 0.1 |
| CS(=O)(=O)Cc1ccc(Nc2ncc3c(n2)CN(c2cnc4c(c2C2CC2)NCCO4)CC3)cc1 [Example 132, 7-{8-cyclopropyl-1H,2H,3H-pyrido[2,3-b][1,4]oxazin-7-yl}-N-[4-(methanesulfonylmethyl)phenyl]-5H,6H,7H,8H-pyrido[3,4-d]pyrimidin-2-amine] | < 0.5 | < 0.1 |
| Cc1c(N2CCc3cnc(Nc4ccc(CO)cc4)nc3C2)cnc2c1NCCO2 [Example 133, {4-[(7-{8-methyl-1H,2H,3H-pyrido[2,3-b][1,4]oxazin-7-yl}-5H,6H,7H,8H-pyrido[3,4-d]pyrimidin-2-yl)amino]phenyl}methanol] | < 0.5 | < 0.1 |
| COCCS(=O)(=O)Cc1ccc(Nc2ncc3c(n2)CN(c2cnc4c(c2C)NCCO4)CC3)cc1 [Example 135, N-{4-[(2-methoxyethanesulfonyl)methyl]phenyl}-7-{8-methyl-1H,2H,3H-pyrido[2,3-b][1,4]oxazin-7-yl}-5H,6H,7H,8H-pyrido[3,4-d]pyrimidin-2-amine] | < 0.5 | < 0.1 |
| Cc1c(N2CCc3cnc(Nc4ccc(CS(C)(=O)=O)cc4)nc3C2)cnc2c(F)c[nH]c12 [Example 138, 7-{3-fluoro-7-methyl-1H-pyrrolo[3,2-b]pyridin-6-yl}-N-[4-(methanesulfonylmethyl)phenyl]-5H,6H,7H,8H-pyrido[3,4-d]pyrimidin-2-amine] | < 0.5 | < 0.1 |
| Cc1c(N2CCc3cnc(Nc4ccc(CS(C)(=O)=O)cc4)nc3C2)cnc2c1NCC1(CC1)O2 [Example 139, N-[4-(methanesulfonylmethyl)phenyl]-7-{8′-methyl-1′,2′-dihydrospiro[cyclopropane-1,3′-pyrido[2,3-b][1,4]oxazin]-7′-yl}-5H,6H,7H,8H-pyrido[3,4-d]pyrimidin-2-amine] | < 0.5 | < 0.1 |
| Cc1c(N2CCc3cnc(Nc4cc5n(n4)CC(=O)N(CC(F)F)CC5)cc3C2)cnc2c1NCCO2 [Example 140, 6-(2,2-difluoroethyl)-2-[(6-{8-methyl-1H,2H,3H-pyrido[2,3-b][1,4]oxazin-7-yl}-5,6,7,8-tetrahydro-2,6-naphthyridin-3-yl)amino]-4H,5H,6H,7H,8H-pyrazolo[1,5-d][1,4]diazepin-7-one] | < 0.5 | < 0.1 |
| Cc1c(N2CCc3cnc(Nc4ccc(CS(C)(=O)=O)cc4)nc3C2)cnc2c1NCCC2=O [Example 142, 7-(2-{[4-(methanesulfonylmethyl)phenyl]amino}-5H,6H,7H,8H-pyrido[3,4-d]pyrimidin-7-yl)-8-methyl-1,2,3,4-tetrahydro-1,5-naphthyridin-4-one] | > 1 | < 0.1 |
| Cc1c(N2CCc3cnc(Nc4ccc(CS(C)(=O)=O)cc4)nc3C2)cnc2c1NCCC2O (stereo not drawn) [Example 143, 7-(2-{[4-(methanesulfonylmethyl)phenyl]amino}-5H,6H,7H,8H-pyrido[3,4-d]pyrimidin-7-yl)-8-methyl-1,2,3,4-tetrahydro-1,5-naphthyridin-4-ol] | < 0.5 | < 0.1 |
| Cc1c(N2CCc3cnc(Nc4ccc(Cn5cncn5)cc4)cc3C2)cnc2c1NCCO2 [Example 144, 6-{8-methyl-1H,2H,3H-pyrido[2,3-b][1,4]oxazin-7-yl}-N-{4-[(1H-1,2,4-triazol-1-yl)methyl]phenyl}-5,6,7,8-tetrahydro-2,6-naphthyridin-3-amine] | < 0.5 | < 0.1 |
| CCc1c(N2CCc3cnc(Nc4ccc(CS(C)(=O)=O)cc4)nc3C2)cnc2c1NCCO2 [Example 145, 7-{8-ethyl-1H,2H,3H-pyrido[2,3-b][1,4]oxazin-7-yl}-N-[4-(methanesulfonylmethyl)phenyl]-5H,6H,7H,8H-pyrido[3,4-d]pyrimidin-2-amine] | < 0.5 | < 0.1 |
| COCCOCCS(=O)(=O)c1ccc(Nc2ncc3c(n2)CN(c2cnc4c(c2C)NCCO4)CC3)cc1 [Example 147, N-{4-[2-(2-methoxyethoxy)ethanesulfonyl]phenyl}-7-{8-methyl-1H,2H,3H-pyrido[2,3-b][1,4]oxazin-7-yl}-5H,6H,7H,8H-pyrido[3,4-d]pyrimidin-2-amine] | < 0.5 | < 0.1 |
| Cc1c(N2CCc3cnc(Nc4ccc(CC#N)cc4)nc3C2)cnc2c1NCCO2 [Example 148, 2-{4-[(7-{8-methyl-1H,2H,3H-pyrido[2,3-b][1,4]oxazin-7-yl}-5H,6H,7H,8H-pyrido[3,4-d]pyrimidin-2-yl)amino]phenyl}acetonitrile; formic acid] | < 0.5 | < 0.1 |
| Cc1c(N2CCc3cnc(Nc4ccc(CS(=O)(=O)N(C)C)cc4)cc3C2)cnc2c1NCCO2 [Example 150, N,N-dimethyl-1-{4-[(6-{8-methyl-1H,2H,3H-pyrido[2,3-b][1,4]oxazin-7-yl}-5,6,7,8-tetrahydro-2,6-naphthyridin-3-yl)amino]phenyl}methanesulfonamide] | < 0.5 | < 0.1 |
| Cc1c(N2CCc3cnc(Nc4ccc(CC(=O)N5CC(F)(F)C5)cc4)nc3C2)cnc2c1NCCO2 [Example 151, 1-(3,3-difluoroazetidin-1-yl)-2-{4-[(7-{8-methyl-1H,2H,3H-pyrido[2,3-b][1,4]oxazin-7-yl}-5H,6H,7H,8H-pyrido[3,4-d]pyrimidin-2-yl)amino]phenyl}ethan-1-one] | < 0.5 | < 0.1 |
| Cc1c(N2Cc3nc(Nc4ccc(CS(C)(=O)=O)cc4)ncc3C(F)(F)C2)cnc2c1NCCO2 [Example 152, 5,5-difluoro-N-[4-(methanesulfonylmethyl)phenyl]-7-{8-methyl-1H,2H,3H-pyrido[2,3-b][1,4]oxazin-7-yl}-5H,6H,7H,8H-pyrido[3,4-d]pyrimidin-2-amine] | < 0.5 | < 0.1 |
| COCCN1CCc2cc(Nc3cc4c(cn3)CCN(c3cnc5c(c3C)NCCO5)C4)nn2CC1=O [Example 153, 6-(2-methoxyethyl)-2-[(6-{8-methyl-1H,2H,3H-pyrido[2,3-b][1,4]oxazin-7-yl}-5,6,7,8-tetrahydro-2,6-naphthyridin-3-yl)amino]-4H,5H,6H,7H,8H-pyrazolo[1,5-d][1,4]diazepin-7-one] | < 0.5 | < 0.1 |
| Cc1c(N2CCc3cnc(Nc4ccc(CS(=O)(=O)CCN(C)C)cc4)nc3C2)cnc2c1NCCO2 [Example 154, N-(4-{[2-(dimethylamino)ethanesulfonyl]methyl}phenyl)-7-{8-methyl-1H,2H,3H-pyrido[2,3-b][1,4]oxazin-7-yl}-5H,6H,7H,8H-pyrido[3,4-d]pyrimidin-2-amine] | < 0.5 | < 0.1 |
| Cc1c(N2CCc3cnc(Nc4ccc(CC(=O)N5CC(F)C5)cc4)nc3C2)cnc2c1NCCO2 [Example 155, 1-(3-fluoroazetidin-1-yl)-2-{4-[(7-{8-methyl-1H,2H,3H-pyrido[2,3-b][1,4]oxazin-7-yl}-5H,6H,7H,8H-pyrido[3,4-d]pyrimidin-2-yl)amino]phenyl}ethan-1-one] | < 0.5 | < 0.1 |
| Cc1c(N2CCc3cnc(Nc4ccc5c(c4)CN(C)S(=O)(=O)C5)nc3C2)cnc2c1NCCO2 [Example 156, 3-methyl-6-[(7-{8-methyl-1H,2H,3H-pyrido[2,3-b][1,4]oxazin-7-yl}-5H,6H,7H,8H-pyrido[3,4-d]pyrimidin-2-yl)amino]-3,4-dihydro-1H-2?6,3-benzothiazine-2,2-dione] | < 0.5 | < 0.1 |
| Cc1c(N2CCc3cnc(Nc4ccc(CCS(C)(=O)=O)cc4)nc3C2)cnc2c1NCCO2 [Example 161, N-[4-(2-methanesulfonylethyl)phenyl]-7-{8-methyl-1H,2H,3H-pyrido[2,3-b][1,4]oxazin-7-yl}-5H,6H,7H,8H-pyrido[3,4-d]pyrimidin-2-amine] | < 0.5 | < 0.1 |
| COCCOCC(=O)Nc1ccc(Nc2ncc3c(n2)CN(c2cnc4c(c2C)NCCO4)CC3)cc1C [Example 162, 2-(2-methoxyethoxy)-N-{2-methyl-4-[(7-{8-methyl-1H,2H,3H-pyrido[2,3-b][1,4]oxazin-7-yl}-5H,6H,7H,8H-pyrido[3,4-d]pyrimidin-2-yl)amino]phenyl}acetamide] | < 0.5 | < 0.1 |
| Cc1c(N2CCc3cnc(Nc4ccc(CC(=O)N5CCC5)cc4)nc3C2)cnc2c1NCCO2 [Example 163, 1-(azetidin-1-yl)-2-(4-((7-(8-methyl-2,3-dihydro-1H-pyrido[2,3-b][1,4]oxazin-7-yl)-5,6,7,8-tetrahydropyrido[3,4-d]pyrimidin-2-yl)amino)phenyl)ethan-1-one] | < 0.5 | < 0.1 |
| Cc1c(N2CCc3cnc(Nc4ccc(CC(=O)N5CC6(COC6)C5)cc4)nc3C2)cnc2c1NCCO2 [Example 164, 2-{4-[(7-{8-methyl-1H,2H,3H-pyrido[2,3-b][1,4]oxazin-7-yl}-5H,6H,7H,8H-pyrido[3,4-d]pyrimidin-2-yl)amino]phenyl}-1-{2-oxa-6-azaspiro[3.3]heptan-6-yl}ethan-1-one] | < 0.5 | < 0.1 |
